target: T1, human motilin receptor (GPR38) (Homo sapiens, UniProt O43193); assay: GPR38 (Motilin Receptor) Functional Assay, NFAT-beta-lactamase reporter in CHO-K1 cells; assay type: cell-based; conditions: not given
T1 construct: expressed in transfected cells; host or cells: CHO-K1
Procedure: The potencies and efficacies of the compounds of this invention for GPR38 can be determined by reporter assay performed on the human cloned receptor as described herein.
GPR38 (Motilin Receptor) Functional Assay
A CHO-K1 cell line stably transfected NFAT-beta-lactamase reporter and human motilin receptor gene was used. The cells were cultured in culture medium (Dulbecco's modified eagle medium containing 10% fetal bovine serum, 1 mM sodium pyruvate, 0.1 mM MEM nonessential amino acids, 25 mM HEPES buffer, 50 units/mL penicillin, 50 microg/mL streptomycin, 100 microg/mL zeocin, and 500 microg/mL G418). The cells were harvested with 0.05% trypsin EDTA and centrifuged. The cell pellets were resuspended in the culture medium and plated into a black/clear bottom 384-well plate at a density of 8000 cells per well, then incubated at 37° C. with 5% CO2 for over night (about 20 hours). On the day of assay, the culture medium was aspirated and 20 microL of assay medium (Dulbecco's modified eagle medium containing 100 units/mL penicillin and 100 microg/mL streptomycin) was added to each well, then the cell plates were placed in incubator at 37° C. with 5% CO2 for 1.5 hours. Compounds were prepared in 100% DMSO and these were diluted to 5× of final concentration with assay buffer (Hanks balanced salt solution, 20 mM HEPES, and 0.1% BSA), then dispensed into 384-well plate (5 microL/well). After incubation at 37° C. with 5% CO2 for 4.5 hours, CCF4-AM loading solution (Invitrogen Corp.) was added to each well. After incubation for 2 hours at room temperature, fluorescence intensities were measured by using plate reader FDSS (Hamamatsu Photonics K. K.) with excitation 400 nm, emission 465 nm/540 nm. Agonistic activity (EC50) was calculated from the sigmoidal dose-response curve using GraphPad Prism software (GraphPad Software, Inc.).

T1 sequence (O43193 whole entry): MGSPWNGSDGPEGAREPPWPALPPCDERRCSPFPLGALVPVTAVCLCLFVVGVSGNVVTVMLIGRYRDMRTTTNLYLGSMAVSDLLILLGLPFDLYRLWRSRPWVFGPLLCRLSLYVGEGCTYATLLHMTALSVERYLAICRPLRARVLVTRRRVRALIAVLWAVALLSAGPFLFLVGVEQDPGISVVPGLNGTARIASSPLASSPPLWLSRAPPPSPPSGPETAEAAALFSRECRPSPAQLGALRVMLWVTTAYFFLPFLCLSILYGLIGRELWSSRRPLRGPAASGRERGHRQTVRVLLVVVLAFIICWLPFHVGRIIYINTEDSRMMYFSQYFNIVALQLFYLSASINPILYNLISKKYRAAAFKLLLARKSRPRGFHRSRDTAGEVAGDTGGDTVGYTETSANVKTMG

Compound | EC50
CN[C@@H]1CC[C@H](C(=O)N[C@@H](CCc2ccccc2)C(=O)N2CCC(N3C(=O)C(C)(C)c4cc(F)ccc43)CC2)C1 [Example 45, (1S,3R)-N-((S)-1-(4-(5-fluoro-3,3-dimethyl-2-oxoindolin-1-yl)piperidin-1-yl)-1-oxo-4-phenylbutan-2-yl)-3-(methylamino)cyclopentane-carboxamide] | ≤ 10 nM
CC1(C)C(=O)N(C2CCN(C(=O)[C@H](CCc3ccccc3)NC(=O)NC[C@@H]3CCCNC3)CC2)c2ccccc21 [Example 61, 1-((S)-1-(4-(3,3-dimethyl-2-oxo-indolin-1-yl)piperidin-1-yl)-1-oxo-4-phenylbutan-2-yl)-3-((R)-piperidin-3-ylmethyl)urea] | ≤ 10 nM
CC1(C)C(=O)N(C2CCN(C(=O)[C@H](CCc3ccccc3)NC(=O)N[C@@H]3CCCNC3)CC2)c2ccccc21 [Example 49, 1-((S)-1-(4-(3,3-dimethyl-2-oxo-indolin-1-yl)piperidin-1-yl)-1-oxo-4-phenylbutan-2-yl)-3-((R)-piperidin-3-yl)urea] | ≤ 10 nM
CN[C@@H]1CC[C@H](C(=O)N[C@@H](Cc2ccccc2F)C(=O)N2CCC(N3C(=O)C(C)(C)c4ccccc43)CC2)C1 [Example 32, (1S,3R)-N-((S)-1-(4-(3,3-dimethyl-2-oxoindolin-1-yl)piperidin-1-yl)-3-(2-fluorophenyl)-1-oxopropan-2-yl)-3-(methylamino)cyclopentane-carboxamide] | ≤ 10 nM
CN(C)[C@H]1CCN(C(=O)N[C@@H](CCc2ccccc2)C(=O)N2CCC(N3C(=O)C(C)(C)c4ccccc43)CC2)C1 [Example 67, (S)—N—((S)-1-(4-(3,3-dimethyl-2-oxoindolin-1-yl)piperidin-1-yl)-1-oxo-4-phenylbutan-2-yl)-3-(dimethylamino)pyrrolidine-1-carboxamide] | ≤ 10 nM
CN[C@@H]1CC[C@H](C(=O)N[C@@H](Cc2cccc(C(F)(F)F)c2)C(=O)N2CCC(N3C(=O)C(C)(C)c4ccccc43)CC2)C1 [Example 35, (1S,3R)-N-((S)-1-(4-(3,3-dimethyl-2-oxoindolin-1-yl)piperidin-1-yl)-1-oxo-3-(3-(trifluoromethyl)phenyl)propan-2-yl)-3-(methylamino)cyclo-pentanecarboxamide] | ≤ 10 nM
CC1(C)C(=O)N(C2CCN(C(=O)[C@H](Cc3ccccc3C(F)(F)F)NC(=O)[C@@H]3CCCNC3)CC2)c2ccccc21 [Example 85, (R)-N-((S)-1-(4-(3,3-dimethyl-2-oxoindolin-1-yl)piperidin-1-yl)-1-oxo-3-(2-(trifluoromethyl)phenyl)propan-2-yl) piperidine-3-carboxamide] | ≤ 10 nM
CCC1(NC(=O)N[C@@H](CCc2ccccc2)C(=O)N2CCC(N3C(=O)C(C)(C)c4ccccc43)CC2)CCNCC1 [Example 55, (S)-1-(1-(4-(3,3-dimethyl-2-oxo-indolin-1-yl)piperidin-1-yl)-1-oxo-4-phenylbutan-2-yl)-3-(4-ethylpiperidin-4-yl)urea] | ≤ 10 nM
CC1(C)C(=O)N(C2CCN(C(=O)[C@H](CCc3ccccc3)NC(=O)[C@@H]3CCCNC3)CC2)c2ccccc21 [Example 1, (R)—N—((S)-1-(4-(3,3-dimethyl-2-oxoindolin-1-yl)piperidin-1-yl)-1-oxo-4-phenylbutan-2-yl)piperidine-3-carboxamide] | ≤ 10 nM
CC1(C)C(=O)N(C2CCN(C(=O)[C@H](CCc3ccccc3)NC(=O)[C@@H]3CCCNC3)CC2)c2ccc(F)cc21 [Example 44, (R)—N—((S)-1-(4-(5-fluoro-3,3-dimethyl-2-oxoindolin-1-yl)piperidin-1-yl)-1-oxo-4-phenylbutan-2-yl)piperidine-3-carboxamide] | ≤ 10 nM
CNC(C)(C)CC(=O)N[C@@H](CCc1ccccc1)C(=O)N1CCC(N2C(=O)C(C)(C)c3cc(F)ccc32)CC1 [Example 46, (S)-N-(1-(4-(5-fluoro-3,3-dimethyl-2-oxoindolin-1-yl)piperidin-1-yl)-1-oxo-4-phenylbutan-2-yl)-3-methyl-3-(methylamino)butanamide] | ≤ 10 nM
CN(C1CC1)[C@H]1CCN(C(=O)N[C@@H](CCc2ccccc2)C(=O)N2CCC(N3C(=O)C(C)(C)c4ccccc43)CC2)C1 [Example 63, (S)-3-(cyclopropyl(methyl)amino)-N-((S)-1-(4-(3,3-dimethyl-2-oxo-indolin-1-yl)piperidin-1-yl)-1-oxo-4-phenylbutan-2-yl)pyrrolidine-1-carboxamide] | ≤ 10 nM
CN[C@@H]1CC[C@H](C(=O)N[C@@H](Cc2ccccc2C)C(=O)N2CCC(N3C(=O)C(C)(C)c4ccccc43)CC2)C1 [Example 26, (1S,3R)-N-((S)-1-(4-(3,3-dimethyl-2-oxoindolin-1-yl)piperidin-1-yl)-1-oxo-3-o-tolylpropan-2-yl)-3-(methyl-amino)cyclopentanecarboxamide] | ≤ 10 nM
CN[C@@H]1CC[C@H](C(=O)N[C@@H](COc2ccccc2Cl)C(=O)N2CCC(N3C(=O)C(C)(C)c4ccccc43)CC2)C1 [Example 39, (1S,3R)-N-((S)-3-(2-chlorophenoxy)-1-(4-(3,3-dimethyl-2-oxoindolin-1-yl)piperidin-1-yl)-1-oxopropan-2-yl)-3-(methylamino)cyclopentanecarboxamide] | ≤ 10 nM
CNC(C)(C)CC(=O)N[C@@H](CCc1ccccc1)C(=O)N1CCC(N2C(=O)C(C)(C)c3ccccc32)CC1 [Example 13, (S)-N-(1-(4-(3,3-dimethyl-2-oxoindolin-1-yl)piperidln-1-yl)-1-oxo-4-phenylbutan-2-yl)-3-methyl-3-(methylamino) butanamide] | ≤ 10 nM
CC(C)(N)CNC(=O)N[C@@H](CCc1ccccc1)C(=O)N1CCC(N2C(=O)C(C)(C)c3ccccc32)CC1 [Example 62, (S)-1-(2-amino-2-methylpropyl)-3-(1-(4-(3,3-dimethyl-2-oxoindolin-1-yl)piperidin-1-yl)-1-oxo-4-phenyl-butan-2-yl)urea] | ≤ 10 nM
CN[C@@H]1CC[C@H](C(=O)N[C@@H](Cc2ccccc2Cl)C(=O)N2CCC(N3C(=O)C(C)(C)c4ccccc43)CC2)C1 [Example 25, (1S,3R)-N-((S)-3-(2-chlorophenyl)-1-(4-(3,3-dimethyl-2-oxoindolin-1-yl)piperidin-1-yl)-1-oxopropan-2-yl)-3-(methylamino)cyclopentane-carboxamide] | ≤ 10 nM
CC1(C)C(=O)N(C2CCN(C(=O)[C@H](CCc3ccccc3)NC(=O)C3(CN)CC3)CC2)c2ccccc21 [Example 7, (S)-1-(aminomethyl)-N-(1-(4-(3,3-dimethyl-2-oxoindolin-1-yl)piperidin-1-yl)-1-oxo-4-phenylbutan-2-yl)cyclopropanecarboxamide] | ≤ 10 nM
CN1CCC[C@H]1CNC(=O)N[C@@H](CCc1ccccc1)C(=O)N1CCC(N2C(=O)C(C)(C)c3ccccc32)CC1 [Example 68, 1-((S)-1-(4-(3,3-dimethyl-2-oxo-indolin-1-yl)piperidin-1-yl)-1-oxo-4-phenylbutan-2-yl)-3-(((S)-1-methylpyrrolidin-2-yl)methyl)urea] | ≤ 10 nM

same assay, conditions: ED50 (nM), Table 15; functional activity toward GPR38 (motilin receptor), (S) versus (R) amino acid linker

Compound | EC50
CC1(C)C(=O)N(C2CCN(C(=O)[C@H](CCc3ccccc3)NC(=O)[C@@H]3CCCNC3)CC2)c2ccccc21 [Example 1, (R)—N—((S)-1-(4-(3,3-dimethyl-2-oxoindolin-1-yl)piperidin-1-yl)-1-oxo-4-phenylbutan-2-yl)piperidine-3-carboxamide] | 0.24 nM
CN[C@H]1CCN(C(=O)N[C@H](CCc2ccccc2)C(=O)N2CCC(N3C(=O)C(C)(C)c4ccccc43)CC2)C1 [Example 99, (S)—N—((R)-1-(4-(3,3-dimethyl-2-oxoindolin-1-yl)piperidin-1-yl)-1-oxo-4-phenylbutan-2-yl)-3-(methylamino)pyrrolidine-1-carboxamide] | 488 nM
